Data published in article PMC6658616, “Novel Peptide Conjugates of Modified Oligonucleotides for Inhibition of Bacterial RNase P” (Frontiers in Pharmacology, 2019).

System: E. coli RNase P (M1 RNA + C5 protein)
Assay: Inhibition of RNase P hydrolysis of fluorescent RNA target by inhibiting oligonucleotides
Type: biochemical, Escherichia coli
Details: 5 nM M1 RNA, 50 nM C5 protein, 100 nM fluorescent RNA target, 0-125 nM inhibiting oligonucleotide, 10 mM Tris-HCl pH 7.5, 10 mM MgCl2, 100 mM NH4Cl, 37°C; fluorescence read-out; mean ± SD from two independent experiments

Question: For “d-inh: oligodeoxyribonucleotide 5’-d(CAAGCAGCCTACCC) (DNA, backbone not given here)”, which IC50 is on record?
Answer: Its IC50 is 270 ± 90 nM.

Question: How did the IC50 turn out when “r-inh: native oligoribonucleotide 5’-r(CAAGCAGCCUACCC), complementary to nucleotides 291–304 in the P15-loop of E. coli M1 RNA (RNA, backbone not given here)” was run?
Answer: Its IC50 is 12 ± 4 nM.
